Source: the supplement of paper PMC11061612

How the values were obtained:
Test in all cases: combination Emax (second highest fraction inhibited in the dose matrix, 72 h); higher = more inhibition; extreme values may be limits of the assay
786-0 (Kidney Carcinoma) = system: 786-0 (Kidney Carcinoma)
In short: (§1)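 After 24 hours at 37°C and 5% CO2 in 1536-well plates, cells in DMEM/F12 or RPMI plus 10% FBS received two-drug dose matrices for 72 hours. Viability came from CellTiter-Glo 2.0 luminescence and was scaled as inhibition, anchored at 0 by vehicle wells and at 1 by blank wells. Combination Emax is taken as the second-highest inhibition in the matrix, and Bliss excess as the observed combination effect less EA + EB − EA·EB, with EA and EB the single-agent effects.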

[1] = system: AsPC-1 (Pancreatic Carcinoma)
In short: as §1

[2] = system: Caov-3 (Ovarian Carcinoma)
In short: as §1

[3] = system: HTC-C3 (Thyroid Gland Carcinoma)
In short: as §1

HuO-3N1 (Osteosarcoma) = system: HuO-3N1 (Osteosarcoma)
In short: as §1

[4] = system: JHH-1 (Hepatocellular Carcinoma)
In short: as §1

[5] = system: KYSE-70 (Esophageal Squamous Cell Carcinoma)
In short: as §1

[6] = system: LOUCY (T-Lymphoblastic Leukemia)
In short: as §1

[7] = system: NCI-H196 (Small Cell Lung Carcinoma)
In short: as §1

[8] = system: NCI-H810 (Non-Small Cell Lung Carcinoma)
In short: as §1

[9] = system: NKM-1 (Acute Myeloid Leukemia)
In short: as §1

[10] = system: OCI-AML5 (Acute Myeloid Leukemia)
In short: as §1

[11] = system: OV-90 (Ovarian Carcinoma)
In short: as §1

[12] = system: OVTOKO (Ovarian Carcinoma)
In short: as §1

[13] = system: PANC-02-03 (Pancreatic Carcinoma)
In short: as §1

[14] = system: PC-14 (Lung Adenocarcinoma)
In short: as §1

[15] = system: RERF-LC-KJ (Lung Adenocarcinoma)
In short: as §1

[16] = system: RL95-2 (Endometrial Carcinoma)
In short: as §1

[17] = system: RMG-I (Ovarian Carcinoma)
In short: as §1

[18] = system: SK-MM-2 (Plasma Cell Myeloma)
In short: as §1

Row | SMILES | combination Emax (786-0 (Kidney Carcinoma)) | combination Emax [1] | combination Emax [2] | combination Emax [3] | combination Emax (HuO-3N1 (Osteosarcoma)) | combination Emax [4] | combination Emax [5] | combination Emax [6] | combination Emax [7] | combination Emax [8] | combination Emax [9] | combination Emax [10] | combination Emax [11] | combination Emax [12] | combination Emax [13] | combination Emax [14] | combination Emax [15] | combination Emax [16] | combination Emax [17] | combination Emax [18]
1 | CN(C)CCCOc1ccc(-c2ccc3ncc4c(c3c2)n(C2CCOCC2)c(=O)n4C)cn1 [AZD0156] + C=CCn1c(=O)c2cnc(Nc3ccc(N4CCN(C)CC4)cc3)nc2n1-c1cccc(C(C)(C)O)n1 [AZD1775] (first compound max 1 µM, partner max 1 µM) | 0.536 | 0.317 | 0.65 | 0.351 | 0.183 | 0.463 | 0.538 | 1 | 0.478 | 0.889 | 0.853 | 0.95 | 0.454 | 0.542 | 0.672 | 0.866 | 0.33 | 0.429 | 0.291 | 0.705
2 | CN(C)CCCOc1ccc(-c2ccc3ncc4c(c3c2)n(C2CCOCC2)c(=O)n4C)cn1 [AZD0156] + CCN(CCO)CCCOc1ccc2c(Nc3cc(CC(=O)Nc4cccc(F)c4)[nH]n3)ncnc2c1 [AZD2811] (first compound max 1 µM, 7x7, partner max 1 µM) | 0.118 | 0.0981 | 0.809 | 0.0862 | 0.15 | 0.108 | 0.161 | 0.929 | 0.0373 | 0.542 | 0.473 | 0.963 | 0.143 | 0.113 | 0.163 | 0.202 | 0.359 | 0.557 | 0.093 | 0.248
3 | CN(C)CCCOc1ccc(-c2ccc3ncc4c(c3c2)n(C2CCOCC2)c(=O)n4C)cn1 [AZD0156] + C[C@@H]1COCCN1C2=NC(=NC(=C2)C3(CC3)[S@](=N)(=O)C)C4=C5C=CNC5=NC=C4 [AZD6738] (first compound max 1 µM, 7x7, partner max 10 µM) | 0.641 | 0.454 | 0.663 | 0.823 | 0.299 | 0.596 | 0.397 | 1 | 0.292 | 0.762 | 0.814 | 0.917 | 0.437 | 0.471 | 0.579 | 0.828 | 0.225 | 0.551 | 0.528 | 0.625
4 | C=CCn1c(=O)c2cnc(Nc3ccc(N4CCN(C)CC4)cc3)nc2n1-c1cccc(C(C)(C)O)n1 [AZD1775] + C[C@@H]1COCCN1C2=NC(=NC(=C2)C3(CC3)[S@](=N)(=O)C)C4=C5C=CNC5=NC=C4 [AZD6738] (first compound max 1 µM, partner max 10 µM) | 0.888 | 0.475 | 0.762 | 0.882 | 0.5 | 0.642 | 0.656 | 1 | 0.53 | 0.975 | 0.983 | 0.981 | 0.526 | 0.56 | 0.728 | 0.918 | 0.413 | 0.914 | 0.686 | 0.705
5 | C=CCn1c(=O)c2cnc(Nc3ccc(N4CCN(C)CC4)cc3)nc2n1-c1cccc(C(C)(C)O)n1 [AZD1775] + O=C(c1cc(Cc2n[nH]c(=O)c3ccccc23)ccc1F)N1CCN(C(=O)C2CC2)CC1 [Olaparib] (first compound max 1 µM, partner max 10 µM) | 0.543 | 0.29 | 0.716 | 0.365 | 0.2 | 0.328 | 0.655 | 1 | 0.536 | 0.926 | 0.945 | 0.953 | 0.559 | 0.496 | 0.667 | 0.887 | 0.276 | 0.486 | 0.365 | 0.705
6 | CCN(CCO)CCCOc1ccc2c(Nc3cc(CC(=O)Nc4cccc(F)c4)[nH]n3)ncnc2c1 [AZD2811] + C=CCn1c(=O)c2cnc(Nc3ccc(N4CCN(C)CC4)cc3)nc2n1-c1cccc(C(C)(C)O)n1 [AZD1775] (first compound max 1 µM, partner max 1 µM) | 0.546 | 0.293 | 0.846 | 0.3 | 0.233 | 0.335 | 0.549 | 1 | 0.468 | 0.886 | 0.879 | 0.978 | 0.654 | 0.419 | 0.538 | 0.842 | 0.312 | 0.662 | 0.256 | 0.644
7 | CCN(CCO)CCCOc1ccc2c(Nc3cc(CC(=O)Nc4cccc(F)c4)[nH]n3)ncnc2c1 [AZD2811] + C[C@@H]1COCCN1C2=NC(=NC(=C2)C3(CC3)[S@](=N)(=O)C)C4=C5C=CNC5=NC=C4 [AZD6738] (first compound max 1 µM, 7x7, partner max 10 µM) | 0.714 | 0.42 | 0.841 | 0.858 | 0.339 | 0.504 | 0.313 | 1 | 0.276 | 0.738 | 0.879 | 0.983 | 0.429 | 0.37 | 0.62 | 0.83 | 0.319 | 0.773 | 0.497 | 0.533
8 | CN(CCO)CC[C@H](CSc1ccccc1)Nc1ccc(S(=O)(=O)NC(=O)c2ccc(N3CCC([C@@H](O)c4ccccc4-c4ccc(Cl)cc4)CC3)cc2)cc1S(=O)(=O)C(F)(F)F [AZD4320] + C[C@@H](Nc1cc(F)cc(F)c1)c1cc(C(=O)N(C)C)cc2c(=O)cc(N3CCOCC3)oc12 [AZD8186] (first compound max 1 µM, 7x7, partner max 3 µM) | 0.415 | 0.739 | 0.911 | 0.407 | 0.441 | 0.747 | 0.211 | 1 | 0.517 | 0.592 | 1 | 1 | 0.795 | – | 0.278 | 0.297 | 0.431 | 0.253 | 0.868 | 1
9 | Cc1c2c(nn1C)CSCc1cc(n(C)n1)CSc1cc(c3ccccc3c1)OCCCc1c(C(=O)O)n(C)c3c-2c(Cl)ccc13 [AZD5991] + Cn1cnc2c(F)c(Nc3ccc(Br)cc3Cl)c(C(=O)NOCCO)cc21 [Selumetinib] (first compound max 1 µM, 7x7, partner max 3 µM) | 0.251 | 0.506 | 0.501 | 0.598 | 0.832 | 0.663 | 0.188 | 0.595 | 0.132 | 0.322 | 0.989 | 1 | – | – | 0.524 | 0.343 | 0.516 | 1 | 0.41 | 0.356
10 | CCc1c2c(nc3ccc(O)cc13)-c1cc3c(c(=O)n1C2)COC(=O)[C@]3(O)CC [SN-38] + O=C(c1cc(Cc2n[nH]c(=O)c3ccccc23)ccc1F)N1CCN(C(=O)C2CC2)CC1 [Olaparib] (first compound max 0.3 µM, 7x7, partner max 10 µM) | 0.931 | 0.156 | 0.984 | 0.686 | 0.688 | 0.539 | 0.304 | 0.764 | – | 0.557 | 0.987 | – | 0.553 | – | 0.728 | 0.696 | – | – | 0.421 | 0.89
11 | Cn1cnc2c(F)c(Nc3ccc(Br)cc3Cl)c(C(=O)NOCCO)cc21 [Selumetinib] + CC(C)n1c(=O)n(C)c2cnc3cc(F)c(-c4ccc(OCCCN5CCCCC5)nc4)cc3c21 [AZD1390] (first compound max 10 µM, 7x7, partner max 0.3 µM) | 0.159 | 0.357 | – | 0.591 | 0.129 | 0.252 | 0.168 | 0.35 | 0.0904 | 0.304 | 0.504 | 0.9 | 0.598 | 0.185 | 0.414 | 0.326 | 0.2 | 0.372 | 0.362 | 0.174
12 | Cn1cnc2c(F)c(Nc3ccc(Br)cc3Cl)c(C(=O)NOCCO)cc21 [Selumetinib] + CCN(CCO)CCCOc1ccc2c(Nc3cc(CC(=O)Nc4cccc(F)c4)[nH]n3)ncnc2c1 [AZD2811] (first compound max 10 µM, 7x7, partner max 1 µM) | 0.208 | 0.443 | – | 0.654 | 0.181 | 0.375 | 0.21 | 0.909 | 0.0609 | 0.444 | 0.758 | 1 | 0.606 | 0.227 | 0.475 | 0.587 | 0.289 | 0.87 | 0.364 | 0.161
13 | Cn1cnc2c(F)c(Nc3ccc(Br)cc3Cl)c(C(=O)NOCCO)cc21 [Selumetinib] + C[C@@H]1COCCN1C2=NC(=NC(=C2)C3(CC3)[S@](=N)(=O)C)C4=C5C=CNC5=NC=C4 [AZD6738] (first compound max 10 µM, 7x7, partner max 10 µM) | 0.606 | 0.435 | – | 0.75 | 0.22 | 0.436 | 0.243 | 0.966 | 0.227 | 0.414 | 0.796 | 1 | 0.688 | 0.404 | 0.566 | 0.829 | 0.312 | 0.772 | 0.354 | 0.23
